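Tested at 5 concentrations; 48 h exposure; 96-well plates; endpoints linearly interpolated, else capped at highest concentration. At the TGI there is no net growth.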
How the values were obtained:
Assay in all cases: growth of human tumour cells (NCI), 48 h
NCI/ADR-RES ovarian = tested on: NCI/ADR-RES ovarian
OVCAR-3 ovarian = tested on: OVCAR-3 ovarian
HT29 colon = tested on: HT29 colon
MDA-MB-435 = tested on: MDA-MB-435
M14 melanoma = tested on: M14 melanoma
DU-145 prostate = tested on: DU-145 prostate
A549 NSCLC = tested on: A549 NSCLC
OVCAR-5 ovarian = tested on: OVCAR-5 ovarian
MOLT-4 leukemia = tested on: MOLT-4 leukemia
UACC-257 melanoma = tested on: UACC-257 melanoma
NCI-H23 lung = tested on: NCI-H23 lung
SNB-19 CNS = tested on: SNB-19 CNS
SK-MEL-2 melanoma = tested on: SK-MEL-2 melanoma
UACC-62 melanoma = tested on: UACC-62 melanoma
TK-10 renal = tested on: TK-10 renal
HCC-2998 colon = tested on: HCC-2998 colon
SK-MEL-5 melanoma = tested on: SK-MEL-5 melanoma
OVCAR-4 ovarian = tested on: OVCAR-4 ovarian
A498 renal = tested on: A498 renal
IGROV1 ovarian = tested on: IGROV1 ovarian
MDA-N = tested on: MDA-N
OVCAR-8 ovarian = tested on: OVCAR-8 ovarian
UO-31 renal = tested on: UO-31 renal
SK-MEL-28 melanoma = tested on: SK-MEL-28 melanoma
MALME-3M melanoma = tested on: MALME-3M melanoma
MDA-MB-231 breast = tested on: MDA-MB-231 breast
786-0 renal = tested on: 786-0 renal
RPMI-8226 leukemia = tested on: RPMI-8226 leukemia
HOP-62 NSCLC = tested on: HOP-62 NSCLC
PC-3 prostate = tested on: PC-3 prostate
EKVX NSCLC = tested on: EKVX NSCLC
HCT-15 colon = tested on: HCT-15 colon
SK-OV-3 ovarian = tested on: SK-OV-3 ovarian
SN12C renal = tested on: SN12C renal
U251 CNS = tested on: U251 CNS
SR leukemia = tested on: SR leukemia
COLO 205 colon = tested on: COLO 205 colon
ACHN renal = tested on: ACHN renal
NCI-H460 lung = tested on: NCI-H460 lung
NCI-H522 lung = tested on: NCI-H522 lung
K-562 leukemia = tested on: K-562 leukemia
BT-549 breast = tested on: BT-549 breast
HCT-116 colon = tested on: HCT-116 colon
NCI-H226 lung = tested on: NCI-H226 lung
KM12 colon = tested on: KM12 colon
SF-295 CNS = tested on: SF-295 CNS
CCRF-CEM leukemia = tested on: CCRF-CEM leukemia
LOX IMVI melanoma = tested on: LOX IMVI melanoma
CAKI-1 renal = tested on: CAKI-1 renal
MCF7 breast = tested on: MCF7 breast
RXF 393 renal = tested on: RXF 393 renal
SF-539 CNS = tested on: SF-539 CNS
SNB-75 CNS = tested on: SNB-75 CNS
SW-620 colon = tested on: SW-620 colon
SF-268 CNS = tested on: SF-268 CNS

Measured: TGI

COC(=O)C1=C(C(=O)OC)C2CCC1CC2=O (stereo not given)
> 100 µM: all assays above
